Results published in patent publication US10196363B2, “Dihydropyrimidin-2-one compounds and medical use thereof” (JAPAN TOBACCO INC., priority 2014, dated 2019).
Where two headings read alike, the source gives them in different places.

Key:
mouse RORγ = molecular target: T1, mouse RORγ (Mus musculus, UniProt P51450); experiment: In vitro assay of inhibitory effect against RORγ transcriptional activity (GAL4-mRORγ LBD luciferase reporter gene assay in CHO cells); format: cell-based; settings: for mRORγ luciferase activity, %-of-control: value in parentheses beside the > EC50 bound, vehicle-control 0.2% DMSO alone = 100%
T1 construct: mouse RORγ, from Ile251 to Lys516; expressed in transfected cells; host or cells: CHO cells (Chinese hamster ovary), transient co-transfection with pG5-Luc
T1 sequence (P51450 251-516): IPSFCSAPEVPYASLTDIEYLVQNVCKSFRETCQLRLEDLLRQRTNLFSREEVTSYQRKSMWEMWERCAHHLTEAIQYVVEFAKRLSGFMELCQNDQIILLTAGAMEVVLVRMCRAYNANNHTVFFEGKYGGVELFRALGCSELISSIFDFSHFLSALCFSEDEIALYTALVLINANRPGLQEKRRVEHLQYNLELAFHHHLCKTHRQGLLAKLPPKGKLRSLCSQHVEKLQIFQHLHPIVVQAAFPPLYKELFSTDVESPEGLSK
In short: (§1)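 Luciferase output, normalised to 0.2% DMSO vehicle (100%), served as the measure of RORγ transcriptional activity. The reporter was driven by GAL4-fused ligand-binding domains of human (residues 253–518) or mouse (251–516) RORγ in transiently transfected CHO cells. Cells received eight-point compound dilutions for 2 days, EC50 values were fitted, and cytotoxic points were dropped.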

human RORγ = molecular target: T2, human RORγ (Homo sapiens, UniProt P51449); experiment: In vitro assay of inhibitory effect against RORγ transcriptional activity (GAL4-hRORγ LBD luciferase reporter gene assay in CHO cells); format: cell-based; settings: for hRORγ luciferase activity, %-of-control: value in parentheses beside the > EC50 bound, vehicle-control 0.2% DMSO alone = 100%
T2 construct: human RORγ, from Ser253 to Lys518; expressed in transfected cells; host or cells: CHO cells (Chinese hamster ovary), transient co-transfection with pG5-Luc
T2 sequence (P51449 253-518): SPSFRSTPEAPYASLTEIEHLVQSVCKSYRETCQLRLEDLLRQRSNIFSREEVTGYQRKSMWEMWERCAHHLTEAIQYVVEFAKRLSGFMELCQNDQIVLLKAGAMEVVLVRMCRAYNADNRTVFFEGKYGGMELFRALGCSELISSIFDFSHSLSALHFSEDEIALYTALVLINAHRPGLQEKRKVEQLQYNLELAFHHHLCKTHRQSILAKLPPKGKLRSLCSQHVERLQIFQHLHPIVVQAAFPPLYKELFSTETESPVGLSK
In short: as §1

[1] = GAL4-mRORγ LBD luciferase reporter, CHO cells, read-out: LUC EC50 mRORγ
[2] = GAL4-hRORγ LBD luciferase reporter, CHO cells, read-out: LUC EC50 hRORγ
[3] = GAL4-mRORγ LBD / pG5-Luc in CHO cells, 2 days incubation
[4] = GAL4-hRORγ LBD / pG5-Luc in CHO cells, 2 days incubation

| Compound | EC50 (mouse RORγ; [1]) [nM] | EC50 (human RORγ; [2]) [nM] | EC50 (mouse RORγ; [3]) [nM] | EC50 (human RORγ; [4]) [nM] | hRORγ luciferase activity, %-of-control (human RORγ) | mRORγ luciferase activity, %-of-control (mouse RORγ) |
| --- | --- | --- | --- | --- | --- | --- |
| COCC(C)C1=CN(C23CCC(C(=O)O)(C2)C3)C(=O)N[C@@]1(C)c1ccc(CCC(C)(C)C)c(Cl)c1 (single isomer, unassigned) [Example 352] | 51 | 63 |  |  |  |  |
| CC(C)(C)CCc1ccc([C@@]2(C)NC(=O)N(CCCC(=O)O)C=C2C2CC2)cc1Cl [Example 56] |  |  | 4290 | 5160 |  |  |
| CC(C)C1=CN(CCC(=O)O)C(=O)N[C@@]1(C)c1ccc(CCC2(F)CCCC2)c(Cl)c1 [Example 301] | 10 | 27 |  |  |  |  |
| CC(C)C1=CN(CCC(=O)O)C(=O)N[C@@]1(C)c1ccc(CC2CCC(C)(C)CC2)c(Cl)c1 [Example 286] | 38 | 270 |  |  |  |  |
| CC(C)C1=CN(CCC(=O)O)C(=O)N[C@@]1(C)c1ccc(SC2CCCC2)c(Cl)c1 [Example 224] | 123 | 343 |  |  |  |  |
| CC(C)C1=CN(CCC(C)C(=O)O)C(=O)NC1(C)c1ccc(OCC(C)(C)C)c(Cl)c1 (single isomer, unassigned) [Example 20] |  |  | 2520 | 2930 |  |  |
| CC(C)CC1=CN(CCC(=O)O)C(=O)N[C@@]1(C)c1ccc(OCC(C)(C)C)c(Cl)c1F [Example 201] | 51 | 60 |  |  |  |  |
| CC(C)C1=CN(CCC(=O)O)C(=O)N[C@@]1(C)c1ccc(CCCC(C)(C)C)c(Cl)c1 [Example 124] |  |  | 30 | > 512 | (54%) |  |
| CC(C)CCC1=CN(CCCC(=O)O)C(=O)N[C@@]1(C)c1ccc(CCC(C)(C)C)c(Cl)c1 [Example 44] |  |  | 90 | 51 |  |  |
| COCCC1=CN(c2ccc(C(=O)O)cc2)C(=O)N[C@@]1(C)c1ccc([C@H]2C[C@@H](C(C)(C)C)C2)c(Cl)c1 [Example 315] | 19 | 13 |  |  |  |  |
| CC(C)C1=CN(CCOCC(=O)O)C(=O)NC1(C)c1ccc(CCC(C)(C)C)c(Cl)c1 (single isomer, unassigned) [Example 39] |  |  | 26 | 20 |  |  |
| CC(C)C1=CN(CCOCC(=O)O)C(=O)NC1(C)c1ccc(CCC(C)(C)C)c(Cl)c1 (single isomer, unassigned) [Example 40] |  |  | 198 | 152 |  |  |
| CC(C)C1=CN(C2CC3(CC(C(=O)O)C3)C2)C(=O)N[C@@]1(C)c1ccc(CCC(C)(C)C)c(Cl)c1 (single isomer, unassigned) [Example 233] | 72 | 69 |  |  |  |  |
| COC(=O)[C@H]1C[C@H](N2C=C(C(C)(C)CCC(=O)O)C(C)(c3ccc(CCC(C)(C)C)c(Cl)c3)NC2=O)C1 (single isomer, unassigned) [Example 181] |  |  | 32 | 18 |  |  |
| CC(C)C1=CN([C@H]2C[C@](C)(C(=O)O)C2)C(=O)N[C@@]1(C)c1ccc(CCC(C)(C)C)c(Cl)c1 [Example 112] |  |  | 19 | 21 |  |  |
| COCCC1=CN(c2ccc(C(=O)O)cn2)C(=O)N[C@@]1(C)c1ccc(C2=CCC(C)(C)CC2)c(Cl)c1 [Example 334] | 14 | 22 |  |  |  |  |
| COC(C)CC1=CN(CCC(=O)O)C(=O)N[C@@]1(C)c1ccc([C@H]2C[C@@H](C(C)(C)C)C2)c(Cl)c1 (stereo partly shown) [Example 304] | 19 | 21 |  |  |  |  |
| CC(C)C1=CN(C23CCC(C(=O)O)(CC2)C3)C(=O)N[C@@]1(C)c1ccc(CCC(C)(C)C)c(Cl)c1 [Example 269] | 23 | 19 |  |  |  |  |
| CC(C)C1=CN(CC(C)C(=O)O)C(=O)N[C@@]1(C)c1ccc(CCC(C)(C)C)c(Cl)c1 (single isomer, unassigned) [Example 299] | 16 | 11 |  |  |  |  |
| CC(C)Cc1ccc(C2(C)NC(=O)N(CCCC(=O)O)C=C2C(C)C)cc1 (racemic) [Example 106] |  |  | 616 | 1160 |  |  |
| CC(C)C1=CN([C@@H]2CCC[C@@H]2C(=O)O)C(=O)N[C@@]1(C)c1ccc(CCC(C)(C)C)c(Cl)c1 [Example 234] | 534 | 964 |  |  |  |  |
| CC(C)C1=CN([C@H]2CC[C@@H](C(=O)O)CC2)C(=O)NC1(C)c1ccc(CCC(C)(C)C)c(Cl)c1 (mixture of isomers) [Example 30] |  |  | 47 | 60 |  |  |
| COCCC1=CN(CCC(=O)O)C(=O)N[C@@]1(C)c1ccc(C2=CCC(C)(C)CC2)c(Cl)c1 [Example 331] | 8 | 14 |  |  |  |  |

| Compound | EC50 (mouse RORγ; [1]) [nM] | EC50 (human RORγ; [2]) [nM] | EC50 (mouse RORγ; [3]) [nM] | EC50 (human RORγ; [4]) [nM] | hRORγ luciferase activity, %-of-control (human RORγ) | mRORγ luciferase activity, %-of-control (mouse RORγ) |
| --- | --- | --- | --- | --- | --- | --- |
| CC(C)C1=CN(CCC(=O)O)C(=O)N[C@@]1(C)c1ccc(COC(C)(C)C)c(Cl)c1 [Example 147] |  |  | 30 | 59 |  |  |
| CC(C)C1=CN(C(C)CCC(=O)O)C(=O)NC1(C)c1ccc(CCC(C)(C)C)c(Cl)c1 (stereo not shown) [Example 73] |  |  | 657 | 803 |  |  |
| CC(C)(C)CCc1ccc([C@]2(C)NC(=O)N(CCCC(=O)O)C=C2C2CC(F)(F)C2)cc1Cl [Example 146] |  |  | 12 | 14 |  |  |
| CC(C)CCOc1ccc([C@]2(C)NC(=O)N(c3ccc(C(=O)O)cc3)C=C2C2CC(F)(F)C2)cc1Cl [Example 348] | 39 | 46 |  |  |  |  |
| CC(C)(C)CCc1ccc(C2(C)NC(=O)N(CCCC(=O)O)C=C2CC(C)(C)C)cc1Cl (racemic) [Example 23] |  |  | 41 | 42 |  |  |
| CC(C)C1=CN(CCC(=O)O)C(=O)N[C@@]1(C)c1cc(F)c(OCCC(C)(C)C)c(Cl)c1 [Example 165] |  |  | 17 | 27 |  |  |
| CC(C)C1=CN(CCC(=O)O)C(=O)NC1(C)c1ccc(C2=CC(C)(C)CCC2)c(Cl)c1 (single isomer, unassigned) [Example 151] |  |  | 23 | 18 |  |  |
| CCC1=CN(CCCC(=O)O)C(=O)N[C@]1(C)c1ccc(CCC(C)(C)C)c(Cl)c1 [Example 68] |  |  | 1760 | 1240 |  |  |
| CC(C)C1=CN(c2ccc(C(=O)O)cc2F)C(=O)N[C@@]1(C)c1ccc(CCC(C)(C)C)c(Cl)c1 [Example 207] | 18 | 9 |  |  |  |  |
| CC(C)CCOc1ccc([C@]2(C)NC(=O)N(CCC(=O)O)C=C2CC(C)C)c(F)c1Cl [Example 202] | 52 | 87 |  |  |  |  |
| CC(C)C1=CN(CCC(=O)O)C(=O)N[C@@]1(C)c1ccc(C2CC2C(C)(C)C)c(Cl)c1 (single isomer, unassigned) [Example 169] |  |  | 15 | 8 |  |  |
| CC(C)C1=CN([C@H]2C[C@H](C(=O)O)C2)C(=O)N[C@]1(C)c1ccc(CCC(C)(C)C)c(Cl)c1 [Example 41] |  |  | > 8000 | > 8000 | (59%) | (61%) |
| CCCCCc1ccc(C2(C)NC(=O)N(CCCC(=O)O)C=C2C(C)C)cc1Cl (racemic) [Example 53] |  |  | 21 | 36 |  |  |
| CC(C)C1=CN(CCC(=O)O)C(=O)N[C@@]1(C)c1ccc(C2CC3(CCC3)C2)c(Cl)c1 [Example 173] |  |  | 11 | 22 |  |  |
| CC(C)C1=CN(CCC(=O)O)C(=O)N[C@]1(C)c1ccc(CCC2CC(C)(C)C2)c(Cl)c1 [Example 141] |  |  | > 8000 | > 8000 | (57%) | (52%) |
| CC(C)C1=CN(CCC(=O)O)C(=O)NC1(C)c1ccc(C2CCCC(C)(C)C2)c(Cl)c1 (single isomer, unassigned) [Example 167] |  |  | 49 | 65 |  |  |
| CC(C)C1=CN(C2(CC(=O)O)CC2)C(=O)N[C@@]1(C)c1ccc(CCC(C)(C)C)c(Cl)c1 [Example 228] | 32 | 32 |  |  |  |  |
| CC(C)C1=CN(CCC(=O)O)C(=O)N[C@@]1(C)c1ccc(C2CC(C)(C)C2)c(Cl)c1 [Example 298] | 18 | 22 |  |  |  |  |
| CC(C)(C)CCc1ccc([C@]2(C)NC(=O)N(C3CCC(F)(F)CC3)C=C2[C@H]2C[C@@H](C(=O)O)C2)cc1Cl [Example 246] | 22 | 10 |  |  |  |  |
| CC(C)(C)CCc1ccc([C@]2(C)NC(=O)N(C34CC(C(=O)O)(C3)C4)C=C2C2CC(F)(F)C2)cc1Cl [Example 316] | 19 | 18 |  |  |  |  |
| CC(C)(C)COc1ccc(C2NC(=O)NC=C2C(C)(C)C(=O)O)cc1Cl (racemic) [Example 2] |  |  | 13100 | > 20000 | (55%) |  |
| CC(C)C1=CN(CCC(=O)O)C(=O)N[C@@]1(C)c1ccc(CCC(C)(C)C)cc1 [Example 253] | 34 | 75 |  |  |  |  |
| CC(C)(C)COc1ccc(C2NC(=O)N(CCCC(=O)O)C=C2C(C)(C)C)cc1Cl (single isomer, unassigned) [Example 6] |  |  | > 8000 | > 8000 | (76%) | (75%) |
